Measured values reported in paper PMC11912475 (Journal of Medicinal Chemistry, 2025).

Columns and labels:
[1] = target: GluN1-GluN2A NMDAR subtype (Homo sapiens, UniProt Q05586+Q12879); experiment: FLIPR/Ca2+ assay, NMDAR GluN1-GluN2A subtype in CHO cells; assay type: cell-based; settings: CHO cells, 10 μM L-glutamate and 10 μM glycine; n.d. = 50% of inhibition could not be reached at the highest concentration used
Outline: (§1)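 Fluo-4-loaded CHO cells (with probenecid and 500 μM ketamine during loading) stimulated with 10 μM L-glutamate plus 10 μM glycine added together with compounds, in HEPES buffer pH 7.3 with 2 mM CaCl2.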

[2] = target: T1, GluN1-GluN2B NMDAR subtype (Homo sapiens, UniProt Q05586+Q13224); experiment: FLIPR/Ca2+ assay, NMDAR GluN1-GluN2B subtype in CHO cells; assay type: cell-based; settings: CHO cells, 10 μM L-glutamate and 10 μM glycine; n.d. = 50% of inhibition could not be reached at the highest concentration used
T1 construct: host or cells: NR1-2B-CHO cells, constitutive expression
Procedure: These compounds were assessed for their effects on specific heterodimeric NMDAR subtypes stably overexpressed in Chinese Hamster Ovary (CHO) cells. The subtypes tested included GluN1-GluN2A, GluN1-GluN2B, GluN1-GluN2C, and GluN1-GluN2D. CHO cells expressing each of the four NMDAR subtypes were incubated with 10 μM L-glutamate, a concentration known to elicit maximal Ca^2+ influx, serving as the stimulus. Intracellular Ca^2+ levels were subsequently measured to determine the extent of NMDAR activation.
Assay buffer composition was 145 mM NaCl, 5 mM KCl, 2 mM CaCl2, 1 g/Liter D-(+)-glucose, and 20 mM HEPES (pH 7.3 adjusted with NaOH). Cells were plated at a density of 15.000/well in 384 black/clear bottom plates. […] Cells were kept at 30 °C in 5% CO2 incubator for 24 h. Cells were preloaded for 1 h with 2 μM Fluo-4 Ca^2+-sensitive probe, simultaneously with 2.5 mM probenecid, an inhibitor of nonspecific anion transport, and 500 μM ketamine to avoid cytotoxicity. […] Intracellular Ca^2+ level was monitored by FLIPR (excitation wavelength at 470–495 nm, emission wavelength at 515–575 nm) for 10 s before and 5 min after the addition of test items. All test items, including L-glutamate and glycine, were added simultaneously. […] FLIPR data were normalized as 100%, in the presence of 10 μM L-glutamate and 10 μM glycine, while as 0%, in the presence of assay buffer. […] Then, data were normalized by Excel 2013 (Microsoft Office) software, using wells added with 10 μM L-glutamate plus 10 μM glycine (column 23) as high control, and wells added with assay buffer only (column 24) as low control. To assess plate quality, Z′ calculations were performed in Excel. Z′ was calculated according to following equation: Z′ = 1–3(σh + σl)/|μh – μL| where μ and σ are the means and the standard deviations of the means of high (h) and low (l) controls, respectively. Compound concentration–response curves were plotted by Prism 8 GraphPad software, in the different experimental conditions (see Supporting Information). Data were analyzed using least-squares regression fitting, to fit data to a standard four parameters logistic equation using GraphPad Prism10. This regression fitting allowed the calculation of pIC50 and the corresponding SEM.

[3] = target: GluN1-GluN2C NMDAR subtype (Homo sapiens, UniProt Q05586+Q14957); experiment: FLIPR/Ca2+ assay, NMDAR GluN1-GluN2C subtype in CHO cells; assay type: cell-based; settings: CHO cells, 10 μM L-glutamate and 10 μM glycine; n.d. = 50% of inhibition could not be reached at the highest concentration used
Chain of GluN1-GluN2C NMDAR subtype (Q14957 20-1233, other chains not shown): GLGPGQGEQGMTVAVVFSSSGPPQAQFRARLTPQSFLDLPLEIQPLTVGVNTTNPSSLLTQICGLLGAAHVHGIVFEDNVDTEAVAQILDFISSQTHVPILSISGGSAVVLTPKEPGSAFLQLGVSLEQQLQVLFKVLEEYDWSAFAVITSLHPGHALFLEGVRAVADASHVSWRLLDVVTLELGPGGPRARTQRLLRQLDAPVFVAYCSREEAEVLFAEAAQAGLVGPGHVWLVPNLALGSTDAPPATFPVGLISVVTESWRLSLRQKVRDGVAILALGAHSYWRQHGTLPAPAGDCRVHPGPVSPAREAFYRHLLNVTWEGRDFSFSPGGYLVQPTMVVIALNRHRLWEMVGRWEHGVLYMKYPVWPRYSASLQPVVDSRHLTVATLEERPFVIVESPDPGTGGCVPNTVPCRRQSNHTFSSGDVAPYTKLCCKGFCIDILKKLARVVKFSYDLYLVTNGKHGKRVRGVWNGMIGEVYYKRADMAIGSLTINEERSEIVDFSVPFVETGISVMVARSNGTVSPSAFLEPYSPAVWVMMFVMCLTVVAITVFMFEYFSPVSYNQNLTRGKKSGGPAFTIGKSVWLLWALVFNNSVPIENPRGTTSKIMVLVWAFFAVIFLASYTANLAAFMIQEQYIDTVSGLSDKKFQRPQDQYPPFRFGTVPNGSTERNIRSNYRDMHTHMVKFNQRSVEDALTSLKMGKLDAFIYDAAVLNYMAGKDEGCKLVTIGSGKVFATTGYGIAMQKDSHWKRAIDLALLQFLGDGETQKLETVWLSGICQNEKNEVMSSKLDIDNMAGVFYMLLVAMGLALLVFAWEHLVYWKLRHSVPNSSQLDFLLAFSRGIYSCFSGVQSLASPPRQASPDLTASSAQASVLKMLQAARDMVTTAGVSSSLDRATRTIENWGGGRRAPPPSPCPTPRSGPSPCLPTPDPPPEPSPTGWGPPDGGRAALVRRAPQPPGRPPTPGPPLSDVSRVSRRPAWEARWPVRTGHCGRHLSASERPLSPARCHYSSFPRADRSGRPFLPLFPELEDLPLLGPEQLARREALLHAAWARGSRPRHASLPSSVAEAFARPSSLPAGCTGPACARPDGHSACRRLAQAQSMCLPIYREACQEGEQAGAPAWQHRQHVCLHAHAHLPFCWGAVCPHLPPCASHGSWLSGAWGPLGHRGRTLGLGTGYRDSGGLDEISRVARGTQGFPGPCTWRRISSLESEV
Outline: as §1

[4] = target: GluN1-GluN2D NMDAR subtype (Homo sapiens, UniProt O15399+Q05586); experiment: FLIPR/Ca2+ assay, NMDAR GluN1-GluN2D subtype in CHO cells; assay type: cell-based; settings: CHO cells, 10 μM L-glutamate and 10 μM glycine; n.d. = 50% of inhibition could not be reached at the highest concentration used
Outline: as §1

[5] = tested on: Glutamate, NMDA, Phencyclidine binding site; experiment: Radioligand displacement binding assay, [3H]TCP, NMDA; design: species or system Wistar rat
Histamine H1 = target: T2, Histamine H1 (Homo sapiens, UniProt P35367); experiment: Radioligand displacement binding assay, [3H]pyrilamine, H1
T2 construct: host or cells: CHO-K1
T2 sequence (P35367 whole entry): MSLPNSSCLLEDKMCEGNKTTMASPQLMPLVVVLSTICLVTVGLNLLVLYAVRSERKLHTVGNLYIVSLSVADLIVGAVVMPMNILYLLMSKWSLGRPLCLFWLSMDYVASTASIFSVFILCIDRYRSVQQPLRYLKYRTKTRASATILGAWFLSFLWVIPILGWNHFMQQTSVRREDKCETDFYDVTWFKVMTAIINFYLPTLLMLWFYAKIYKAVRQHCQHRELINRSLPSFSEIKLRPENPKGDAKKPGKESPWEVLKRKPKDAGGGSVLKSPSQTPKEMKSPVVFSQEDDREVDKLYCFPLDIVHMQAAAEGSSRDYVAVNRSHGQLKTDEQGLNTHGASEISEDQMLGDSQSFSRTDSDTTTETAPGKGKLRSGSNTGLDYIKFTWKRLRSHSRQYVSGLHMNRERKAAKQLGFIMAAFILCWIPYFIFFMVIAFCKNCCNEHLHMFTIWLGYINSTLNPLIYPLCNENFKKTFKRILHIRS

Muscarinic M5 = target: T3, Muscarinic M5 (Homo sapiens, UniProt P08912); experiment: Radioligand displacement binding assay, [3H]N-methylscopolamine, M5
T3 construct: host or cells: CHO-K1
T3 sequence (P08912 1-532): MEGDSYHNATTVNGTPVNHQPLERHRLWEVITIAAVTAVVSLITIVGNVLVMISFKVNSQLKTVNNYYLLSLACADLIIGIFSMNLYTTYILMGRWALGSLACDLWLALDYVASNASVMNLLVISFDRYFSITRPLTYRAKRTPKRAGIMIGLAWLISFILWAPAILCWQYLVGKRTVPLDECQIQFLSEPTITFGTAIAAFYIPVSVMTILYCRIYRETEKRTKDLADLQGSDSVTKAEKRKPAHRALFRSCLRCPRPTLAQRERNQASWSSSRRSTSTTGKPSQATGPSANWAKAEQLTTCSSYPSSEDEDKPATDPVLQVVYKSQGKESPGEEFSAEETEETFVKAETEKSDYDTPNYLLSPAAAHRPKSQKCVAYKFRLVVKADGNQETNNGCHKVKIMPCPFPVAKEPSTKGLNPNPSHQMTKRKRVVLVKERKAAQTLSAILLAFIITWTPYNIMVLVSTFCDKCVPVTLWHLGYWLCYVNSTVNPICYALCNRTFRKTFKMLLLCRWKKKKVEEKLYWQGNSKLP

μ opioid receptor (MOP) = target: T4, μ opioid receptor (MOP) (Homo sapiens, UniProt P35372); experiment: biochemical; assay type: binding; settings: for inhibition at 0.3 µM / inhibition at 3 µM: read-out: % inhibition of binding, MOP
T4 construct: host or cells: CHO-K1
T4 sequence (P35372 whole entry): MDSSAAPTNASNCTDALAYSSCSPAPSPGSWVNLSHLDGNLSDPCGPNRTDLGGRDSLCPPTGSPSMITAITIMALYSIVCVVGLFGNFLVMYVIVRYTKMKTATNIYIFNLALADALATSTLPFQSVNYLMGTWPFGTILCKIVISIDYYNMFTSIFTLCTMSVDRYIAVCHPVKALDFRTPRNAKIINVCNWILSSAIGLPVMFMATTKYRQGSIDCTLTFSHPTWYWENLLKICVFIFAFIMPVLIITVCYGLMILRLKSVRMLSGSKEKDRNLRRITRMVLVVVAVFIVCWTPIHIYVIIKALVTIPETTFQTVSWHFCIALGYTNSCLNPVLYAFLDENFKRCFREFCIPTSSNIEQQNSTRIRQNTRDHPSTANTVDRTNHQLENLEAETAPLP

Serotonin 5-HT1A = target: T5, Serotonin 5-HT1A (Homo sapiens, UniProt P08908); experiment: Radioligand displacement binding assay, [3H]8-OH-DPAT, 5-HT1A
T5 construct: host or cells: CHO-K1
T5 sequence (P08908 1-422): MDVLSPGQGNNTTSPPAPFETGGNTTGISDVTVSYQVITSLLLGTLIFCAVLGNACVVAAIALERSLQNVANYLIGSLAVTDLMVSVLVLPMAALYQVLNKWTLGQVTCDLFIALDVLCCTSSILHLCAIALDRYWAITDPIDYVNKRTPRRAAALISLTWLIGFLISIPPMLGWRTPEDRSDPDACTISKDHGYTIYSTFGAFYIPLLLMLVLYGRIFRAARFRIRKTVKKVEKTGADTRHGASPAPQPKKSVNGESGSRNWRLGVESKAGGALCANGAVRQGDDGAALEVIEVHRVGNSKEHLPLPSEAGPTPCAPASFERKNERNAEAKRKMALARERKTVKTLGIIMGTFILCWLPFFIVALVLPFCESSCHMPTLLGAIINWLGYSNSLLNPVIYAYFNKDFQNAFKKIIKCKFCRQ

Serotonin 5-HT2A = target: T6, Serotonin 5-HT2A (Homo sapiens, UniProt P28223); experiment: Radioligand displacement binding assay, [3H]ketanserin, 5-HT2A
T6 construct: host or cells: CHO-K1
T6 sequence (P28223 whole entry): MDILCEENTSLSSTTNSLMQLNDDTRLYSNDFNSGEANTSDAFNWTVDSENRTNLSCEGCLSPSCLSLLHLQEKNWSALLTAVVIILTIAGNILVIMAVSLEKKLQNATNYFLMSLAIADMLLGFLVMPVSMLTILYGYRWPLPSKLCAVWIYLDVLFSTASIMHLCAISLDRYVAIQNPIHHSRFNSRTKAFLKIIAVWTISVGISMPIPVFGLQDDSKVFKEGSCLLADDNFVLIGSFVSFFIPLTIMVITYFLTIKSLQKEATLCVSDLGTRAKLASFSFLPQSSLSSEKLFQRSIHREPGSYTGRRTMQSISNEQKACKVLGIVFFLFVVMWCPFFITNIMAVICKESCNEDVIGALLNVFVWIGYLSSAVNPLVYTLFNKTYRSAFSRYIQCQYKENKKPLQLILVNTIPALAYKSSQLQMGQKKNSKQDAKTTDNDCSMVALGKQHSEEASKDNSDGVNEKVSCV

Serotonin 5-HT2C = target: T7, Serotonin 5-HT2C (Homo sapiens, UniProt P28335); experiment: Radioligand displacement binding assay, [3H]mesulergine, 5-HT2C
T7 construct: host or cells: CHO-K1
T7 sequence (P28335 33-458): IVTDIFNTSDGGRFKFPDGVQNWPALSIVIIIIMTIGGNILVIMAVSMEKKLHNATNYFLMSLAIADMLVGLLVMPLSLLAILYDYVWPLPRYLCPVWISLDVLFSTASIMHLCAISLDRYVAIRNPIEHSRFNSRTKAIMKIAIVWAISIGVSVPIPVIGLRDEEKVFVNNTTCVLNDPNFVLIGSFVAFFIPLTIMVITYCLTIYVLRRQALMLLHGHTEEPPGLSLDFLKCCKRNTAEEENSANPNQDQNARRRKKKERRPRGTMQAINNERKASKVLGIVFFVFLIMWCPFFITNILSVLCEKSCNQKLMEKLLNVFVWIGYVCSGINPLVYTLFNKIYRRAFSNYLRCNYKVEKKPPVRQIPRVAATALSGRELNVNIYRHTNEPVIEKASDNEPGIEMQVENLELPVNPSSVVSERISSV

Serotonin 5-HT5A = target: T8, Serotonin 5-HT5A (Homo sapiens, UniProt P47898); experiment: Radioligand displacement binding assay, [3H]LSD, 5-HT5A
T8 construct: host or cells: CHO-K1
T8 sequence (P47898 whole entry): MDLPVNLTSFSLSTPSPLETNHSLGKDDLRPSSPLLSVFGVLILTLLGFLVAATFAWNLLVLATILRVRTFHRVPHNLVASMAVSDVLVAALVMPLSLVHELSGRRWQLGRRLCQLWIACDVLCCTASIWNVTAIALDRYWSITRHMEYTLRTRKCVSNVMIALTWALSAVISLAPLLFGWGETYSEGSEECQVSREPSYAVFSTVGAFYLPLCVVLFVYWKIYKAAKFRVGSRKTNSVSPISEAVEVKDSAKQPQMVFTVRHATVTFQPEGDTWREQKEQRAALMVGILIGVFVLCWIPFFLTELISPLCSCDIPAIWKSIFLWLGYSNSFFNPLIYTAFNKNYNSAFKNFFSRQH

Serotonin 5-HT7 = target: T9, Serotonin 5-HT7 (Homo sapiens, UniProt P34969); experiment: Radioligand displacement binding assay, [3H]LSD, 5-HT7
T9 construct: host or cells: CHO-K1
T9 sequence (P34969 whole entry): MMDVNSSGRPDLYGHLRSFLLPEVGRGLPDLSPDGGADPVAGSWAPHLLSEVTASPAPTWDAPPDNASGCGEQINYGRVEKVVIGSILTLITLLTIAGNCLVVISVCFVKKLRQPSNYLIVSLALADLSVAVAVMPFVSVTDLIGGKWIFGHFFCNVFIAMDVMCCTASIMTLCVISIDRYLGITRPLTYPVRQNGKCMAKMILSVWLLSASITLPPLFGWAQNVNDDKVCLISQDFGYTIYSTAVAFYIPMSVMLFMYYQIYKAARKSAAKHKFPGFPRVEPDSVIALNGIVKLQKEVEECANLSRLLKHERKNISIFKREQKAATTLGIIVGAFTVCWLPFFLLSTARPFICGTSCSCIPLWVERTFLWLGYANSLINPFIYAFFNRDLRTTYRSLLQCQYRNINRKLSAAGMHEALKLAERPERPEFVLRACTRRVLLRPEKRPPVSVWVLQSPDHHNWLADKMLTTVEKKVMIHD

Sigma σ1 = target: T10, Sigma σ1 (Homo sapiens, UniProt Q99720); experiment: Radioligand displacement binding assay, [3H]pentazocine, sigma σ1
T10 construct: Sigma σ1; Source: Human Jurkat cells; host or cells: Jurkat
T10 sequence (Q99720 whole entry): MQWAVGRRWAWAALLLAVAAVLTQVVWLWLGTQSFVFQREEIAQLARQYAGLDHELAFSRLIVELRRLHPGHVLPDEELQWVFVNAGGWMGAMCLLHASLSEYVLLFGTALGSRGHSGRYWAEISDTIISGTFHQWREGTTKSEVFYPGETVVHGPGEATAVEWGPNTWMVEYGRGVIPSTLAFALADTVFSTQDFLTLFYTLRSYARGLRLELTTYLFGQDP

[6] = target: T11, Norepinephrine transporter NET (Homo sapiens, UniProt P23975); experiment: Radioligand displacement binding assay, [125I]RTI-55, NET
T11 construct: host or cells: MDCK
T11 sequence (P23975 whole entry): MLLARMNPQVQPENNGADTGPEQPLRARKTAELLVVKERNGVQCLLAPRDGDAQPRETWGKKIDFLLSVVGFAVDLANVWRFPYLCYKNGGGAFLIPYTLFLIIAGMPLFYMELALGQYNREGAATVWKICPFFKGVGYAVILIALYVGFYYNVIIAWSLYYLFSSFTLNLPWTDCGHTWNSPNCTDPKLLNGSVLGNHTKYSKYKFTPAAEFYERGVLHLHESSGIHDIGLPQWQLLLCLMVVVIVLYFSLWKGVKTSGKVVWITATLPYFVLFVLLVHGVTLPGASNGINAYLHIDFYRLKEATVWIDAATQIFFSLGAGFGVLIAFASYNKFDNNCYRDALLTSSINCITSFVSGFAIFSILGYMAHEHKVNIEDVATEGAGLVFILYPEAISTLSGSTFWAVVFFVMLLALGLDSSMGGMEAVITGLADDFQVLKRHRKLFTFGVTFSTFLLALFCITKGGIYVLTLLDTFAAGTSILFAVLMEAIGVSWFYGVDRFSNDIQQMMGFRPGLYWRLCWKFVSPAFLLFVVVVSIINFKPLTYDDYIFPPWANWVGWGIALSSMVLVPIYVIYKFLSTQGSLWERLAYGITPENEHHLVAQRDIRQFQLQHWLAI

[7] = target: T12, Serotonin transporter SERT (Homo sapiens, UniProt P31645); experiment: Radioligand displacement binding assay, [3H]paroxetine, SERT
T12 construct: host or cells: HEK-293
T12 sequence (P31645 whole entry): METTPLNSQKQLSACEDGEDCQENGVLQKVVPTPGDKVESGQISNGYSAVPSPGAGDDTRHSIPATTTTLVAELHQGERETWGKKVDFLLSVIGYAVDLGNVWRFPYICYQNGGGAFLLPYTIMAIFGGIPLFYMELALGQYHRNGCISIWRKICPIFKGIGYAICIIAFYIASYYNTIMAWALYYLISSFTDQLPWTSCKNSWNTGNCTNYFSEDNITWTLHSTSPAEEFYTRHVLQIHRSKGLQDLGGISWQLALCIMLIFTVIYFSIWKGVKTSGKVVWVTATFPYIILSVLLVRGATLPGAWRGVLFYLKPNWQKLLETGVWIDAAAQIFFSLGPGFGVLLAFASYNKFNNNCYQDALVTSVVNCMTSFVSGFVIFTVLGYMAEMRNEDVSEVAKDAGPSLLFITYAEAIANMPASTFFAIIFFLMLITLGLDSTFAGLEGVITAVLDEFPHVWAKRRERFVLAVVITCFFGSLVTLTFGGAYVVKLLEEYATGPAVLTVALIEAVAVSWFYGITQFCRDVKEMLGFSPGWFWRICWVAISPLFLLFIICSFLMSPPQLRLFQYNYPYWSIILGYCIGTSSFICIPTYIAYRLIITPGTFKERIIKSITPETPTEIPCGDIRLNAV

| Structure (SMILES) | pIC50 (mean ± SEM) GluN1-GluN2A [1] | pIC50 (mean ± SEM) GluN1-GluN2B [2] | pIC50 (mean ± SEM) GluN1-GluN2C [3] | pIC50 (mean ± SEM) GluN1-GluN2D [4] | % inhibition of binding, NMDA ([5]; 1 μM) [%] | inhibition at 10 µM (Histamine H1) [%] | inhibition at 30 µM (Histamine H1) [%] | inhibition at 1 µM (Muscarinic M5) [%] | inhibition at 10 µM (Muscarinic M5) [%] | inhibition at 0.3 µM (μ opioid receptor (MOP)) [%] | inhibition at 3 µM (μ opioid receptor (MOP)) [%] | inhibition at 0.3 µM (Serotonin 5-HT1A) [%] | inhibition at 3 µM (Serotonin 5-HT1A) [%] | inhibition at 0.3 µM (Serotonin 5-HT2A) [%] | inhibition at 3 µM (Serotonin 5-HT2A) [%] | inhibition at 0.3 µM (Serotonin 5-HT2C) [%] | inhibition at 3 µM (Serotonin 5-HT2C) [%] | inhibition at 1 µM (Serotonin 5-HT5A) [%] | inhibition at 10 µM (Serotonin 5-HT5A) [%] | inhibition at 1 µM (Serotonin 5-HT7) [%] | also measured |
| --- | --- | --- | --- | --- | --- | --- | --- | --- | --- | --- | --- | --- | --- | --- | --- | --- | --- | --- | --- | --- | --- |
| CC[C@H](O)C(C[C@H](C)NC)(c1ccccc1)c1ccccc1 [(3S,6S)-NML, (3S,6S)-6-(methylamino)-4,4-diphenylheptan-3-ol] | 4.6 ± 0.062 | 4.7 ± 0.080 | 4.7 ± 0.042 | 4.6 ± 0.065 | 9 | 33 | 65 | 2 | 15 | 65 | 95 | -4 | 1 | -10 | -11 | 5 | 28 | 1 | 10 | 12 | displacement at the histamine H1 receptor, in words (Histamine H1; concentration not given): significant displacement percentages; displacement at the MOP, in words (μ opioid receptor (MOP); concentration not given): high displacement percentages; inhibition at 10 µM (Serotonin 5-HT7): 23%; inhibition at 0.3 µM (Sigma σ1): 46%; inhibition at 3 µM (Sigma σ1): 77%; displacement at the Sigma-1 (σ1) receptor, in words (Sigma σ1; concentration not given): high displacement percentages; inhibition at 1 µM [6]: -12%; inhibition at 10 µM [6]: 12%; inhibition at 1 µM [7]: 2%; inhibition at 10 µM ([7]; 10 μM): 25% |
| CC[C@H](O)C(C[C@@H](C)NC)(c1ccccc1)c1ccccc1 [(3S,6R)-NML, (3S,6R)-6-(methylamino)-4,4-diphenylheptan-3-ol] | 4.8 ± 0.050 | 4.6 ± 0.047 | 5.0 ± 0.049 | 5.0 ± 0.058 | -5 | 7 | 27 | 21 | 74 | 2 | 26 | -1 | -4 | -3 | 11 | 15 | 68 | 4 | 42 | 11 | % inhibition of binding, NMDA ([5]; 10 μM): 51%; pKi (mean ± SEM) [3H]TCP, NMDA ([5]; Wistar rat cerebral cortex, 4.0 nM [3H]TCP): 5.54 ± 0.09; pKi (mean ± SEM) [3H]diprenorphine, MOP (μ opioid receptor (MOP)): 5.55 ± 0.17; inhibition at 10 µM (Serotonin 5-HT7): 7%; inhibition at 0.3 µM (Sigma σ1): -1%; inhibition at 3 µM (Sigma σ1): 26%; inhibition at 1 µM [6]: 4%; inhibition at 10 µM [6]: 9%; inhibition at 1 µM [7]: 10%; % inhibition of binding, SERT ([7]; 10 μM): displaced; inhibition at 10 µM ([7]; 10 μM): 61% |
